Data taken from patent US20120015923A1, “USE OF ANDROGRAPHOLIDE COMPOUNDS FOR TREATING INFLAMMATION AND AIRWAY DISORDERS” (NATIONAL UNIVERSITY OF SINGAPORE, priority 2009, published 2012).

Key:
[1] = test system: IL-4, IL-5, IL-13, eotaxin and IFN-γ in the BAL fluid; experiment: Cytokine and chemokine levels in BAL fluid (ELISA), OVA mouse asthma model; assay type: in vivo, BALB/c mice; conditions: OVA-challenged mice
Procedure: Andrographolide or DDAG alone (0.1, 0.5, and 1 mg/kg; Sigma, St. Louis, Mo.) or vehicle (1% dimethyl sulfoxide [DMSO]) in 0.1 ml saline was given by intraperitoneal injections 2 hour before and 10 hours after each OVA aerosol challenge. Andrographolide or 14-deoxy-11,12-didehydroandrographolide (DDA) were prepared from stock. DMSO was used as a solvent to dissolve Andrographolide or DDA. A stock solution of 10 mg/ml was prepared and stored at −20° C. When used, the stock solution was thawed and diluted with Saline solution to form three different drug concentrations: 0.01 mg/ml, 0.05 mg/ml and 0.1 mg/ml.
Bronchoalveolar lavage (BAL) was conducted on Day 25, 24 hours after the final OVA/saline challenge. Mice were anaesthetized by 0.3 ml i.p. injections of an anesthetic cocktail (ketamine: medetomidine: H2O=3:4:33, Parnell, Alexandria NSW, Australia & Pfizer, Auckland, New Zealand) with 27 G½ sterile needle (PrecisionGlide®). Mice were sacrificed by cervical dislocation 5 minutes after anesthetization. 25 G½ sterile needles (PrecisionGlide®) were used for blood extraction. […] Tracheotomy was then performed and a small transverse incision was made on the exposed trachea. Blunt needles (20 G), which were connected to 1 ml sterile syringes, were inserted into the trachea through this incision and 0.5 ml of ice-cold PBS (4° C.) was instilled thrice into the lungs (0.5 ml×3). About 1.2-1.4 ml of BAL fluid was retrieved from each mouse and was kept in −80° C. for subsequent experiments.
DDAG alone (0.1, 0.5, and 1 mg/kg; Sigma, St. Louis, Mo.) or vehicle (2% dimethyl sulfoxide [DMSO]) in 0.1 ml saline was given by intraperitoneal injections 2 hour before and 10 hours after each OVA aerosol challenge. In the combinational experiments, DDAG (0.1 mg/kg) in combination with Dexamethasone (0.05 mg/kg) was given intraperitoneally. In both experimental setting, saline aerosol was used as a negative control. Animal experiments were performed according to the Institutional guidelines for Animal Care and Use Committee of the National University of Singapore.
Levels of IL-4, 11-5, IL-13, eotaxin and IFN-γ in the BAL fluid were measured (IL-4, IL-5 and IFN-γ from BD Biosciences Pharmingen, San Diego, Calif., USA; IL-13 and eotaxin from R&D Systems, Minneapolis, Minn., USA). The kits were obtained from two different manufacturers and thus the protocols differed in certain steps. In brief, 50 μl of coating capture antibody in respective coating buffers (pH 9.5, 0.1 M sodium carbonate for IL-4, IL-5 and IFN-γ; 1×PBS for IL-13 and eotaxin) was coated to 96-well ELISA plate (NUNC, Denmark). The plate was sealed with parafilm and incubated overnight at respective temperature (4° C. for IL-4, IL-5 and IFN-γ and room temperature for IL-13 and eotaxin). Next day, each well was washed with washing buffer (PBS with 0.05% Tween-20) and blocked with 200 μl blocking buffer (PBS with 10% FBS for IL-4, IL-5 and IFN-γ; 1×PBS with 1% BSA and 5% sucrose for IL-13 and eotaxin) for 2 hours at room temperature. After blocking, 50 μl of standards and BAL fluid samples were loaded into respective wells, and incubated for 2 h at room temperature. Several washings were done to remove unbound molecules. The plate was incubated with biotinylated-detection antibody with HRP for 1 h (BD OptEIA™ Kit) or with biotinylated detection antibody for 1 h followed by HRP for 45 min (R&D Kit). After washing, 50 μl of TMB peroxidase substrate (solution A: solution B=9:1) was added into each well, and incubated for 30 min in dark. Lastly, 50 μl of stopping solution (1 M H2SO4) was added to stop the reaction. The optical density of each well in the plate was read at 450 nm with λ correction at 570 nm. Detection limits of the respective kits are as follow: 4 pg/ml for IL-4 and IL-5; 15.6 pg/ml for IL-13 and IFN-γ; and 2 pg/ml for eotaxin.

[2] = test system: total IgE and OVA-specific IgE, IgG1, and IgG2a in serum; experiment: Serum Ig levels (ELISA), OVA mouse asthma model; assay type: in vivo, BALB/c mice; conditions: OVA-challenged mice, serum 24 hours after last OVA aerosol; for serum OVA-specific IgE level: DDAG even at lowest dose 0.1 mg/kg
Procedure: Blood collected from the hearts were allowed to clot for at least 4 h. Centrifugation at 3000 rpm for 5 min at 4° C. was then performed on all blood samples. The supernatant, which is the serum, was extracted carefully and stored at −80° C. The samples were kept for ELISA.
Mice were anesthetized 24 hours after the last aerosol challenge and bronchoalveolar lavage (BAL) was performed as described above. BAL fluid total and differential cell counts, and cytokine and chemokine levels were determined as described above. Blood was collected by cardiac puncture, and serum levels of total IgE and OVA-specific IgE, IgG1, and IgG2a levels were determined.
Levels of total IgE and OVA-specific IgE, IgG 1 , and IgG2a in serum were measured. 96-well ELISA plate coated with either 50 μl of capture antibody (for total IgE, 1:250 dilution with 1 M Na2CO3) or 50 μl of 20 μg/ml OVA (for OVA-specific IgE, IgG1, and IgG2a) overnight at 4° C. Next day, the plate was washed with washing buffer (PBS with 0.05% Tween-20 for total IgE; PBS with 0.1% Tween-20 for OVA-specific IgE) and blocked with 300 μl 10% FBS in PBS for 2 hr at room temperature. After blocking, standards (only for total IgE) and serum samples were loaded into respective wells and incubated for 2 h. Followed by washing, respective detective antibodies were added and incubated for 1 h, followed by 45 min incubation of HRP-conjugate antibody for 45 min in the dark. Substrates were then added for 30 min in the dark with mild shaking. Lastly, 50 μl of stopping solution (1 M H2SO4) was added to stop the reaction. The optical density of each well in the plate was read at 450 nm with λ correction at 570 nm. The detection limit for total IgE was 2 ng/ml.

[3] = 0.1, 0.5, 1 mg/kg i.p., 24 hours after last OVA aerosol, vs DMSO control
[4] = DDAG significant at higher doses

C=C1CC[C@@H]2[C@](C)(CO)[C@H](O)CC[C@@]2(C)[C@@H]1C/C=C1/C(=O)OC[C@H]1O [Andrographolide]
IL-4 level in BAL fluid [1, 3]: inhibited | IL-5 level in BAL fluid [1, 3]: inhibited | IL-13 level in BAL fluid [1, 3]: inhibited | eotaxin level in BAL fluid [1, 3]: inhibition | serum OVA-specific IgG2a level [2]: inhibition | serum OVA-specific IgE level [2]: significantly lowered | serum OVA-specific IgG1 level [2, 4]: inhibition | serum total IgE level [2, 4]: significantly lowered

C=C1CCC2C(C)(CO)C(O)CCC2(C)C1C=CC1=CCOC1=O (stereo not drawn) [DDAG, 14-Deoxy-11,12-didehydroandrographolide]
IFN-γ level in BAL fluid ([1]; 1 mg/kg): markedly upregulated | IL-4 level in BAL fluid [1, 3]: significantly (P<0.05) reduced | IL-5 level in BAL fluid [1, 3]: significantly (P<0.05) reduced | IL-13 level in BAL fluid [1, 3]: significantly (P<0.05) reduced | serum OVA-specific IgG2a level [2]: no effects | serum OVA-specific IgE level [2]: strongly suppressed | serum total IgE level [2, 4]: to a lesser extent
